Series [1] deals with adipose tissue macrophages (ATMs). As to the kind of experiment: qRT-PCR and Western blot in adipose tissue macrophages (ATM) of treated DIO mice. It is filed as in vivo, C57BL/6J male mice. The protocol: Epididymal fat pads of mice were excised and placed in gentleMACS™ C Tubes (Miltenyi Biotec, San Diego, Calif.) containing digestion medium (HBSS, 2 mg/ml collagenase (Sigma-Aldrich, St. Louis, Mo.) and 2% BSA), followed by homogenization utilizing a gentleMACS™ Dissociator (Miltenyi Biotec). After incubation at 37° C. for 30 minutes with gentle shaking, the cell suspension was filtered through a 100-μm filter and then spun at 300 g for 5 minutes to separate floating adipocytes from the stromal vascular fraction (SVF) pellet. Isolation of F4/80+ ATMs from the SVF was performed using EasySep™ FITC Positive Selection Kit (STEMCELL Technologies, Vancouver, B.C.). FITC-anti-F4/80 antibodies (Clone: BM8, BioLegend®, San Diego, Calif.) were used to label the cells for positive selection. Isolated cells were lysed for RNA analysis in QIAzol (Qiagen, Valencia, Calif.) and stored at −80° C. until RNA purification.
ATM RNA was isolated by miRNeasy Mini Kit (Qiagen). For RNA extraction from whole adipose tissue, 1 mg of adipose tissue was homogenized in RNA-Solv® Reagent with OBI's HiBind® technology reagent (Omega Bio-tek, Norcross, Ga.) and total RNA was isolated as previously described (31). RNA quality was verified by NanoDrop™ 2000C (Thermo Scientific™, Waltham, Mass.). Purified RNA (0.5-1 μg) was reverse-transcribed using miScript cDNA Synthesis Kit (Qiagen), and qRT-PCR analysis was conducted using SsoAdvanced™ Universal SYBR® Green Supermix kit (Bio-Rad, Hercules, Calif.). Fold change in mRNA expression was calculated using the comparative cycle method (2^−ΔΔCt).
Western blot analyses were carried out according to standard protocols with antibodies raised against Netrin-1 (R&D Systems, Minneapolis, Minn.) or γ-tubulin (Sigma-Aldrich, St. Louis, Mo.), which was used as a loading control.
(Quantitative PCR measures a nucleic acid by following its amplification.)

The test system of series [2] is DIO mice. As to the kind of experiment: Fasting metabolic parameters in DIO mice, pre- and post-intervention. It counts as in vivo, C57BL/6J male mice. To be noted: HFD+SR vs HFD+Veh and HFD-PFSR; pre- and post- 4-week intervention; 5 h fasted. The protocol:
C57BL/6J male mice (Jackson Laboratory, Bar Harbor, Me.) were fed HFD consisting of 60% Kcal from fat (D12492, Research Diets Inc, New Brunswick, N.J.) for 12 weeks before starting the intervention treatment with SR141716A. Additionally, age-matched C57BL/6J male mice were fed a low fat diet (LFD) consisting of 10% Kcal from fat (D12450J, Research Diets Inc, New Brunswick, N.J.) to develop lean controls. SR141716A was obtained from NIDA and administered at a dose of 10 mg/kg daily by oral gavage for 4 weeks, beginning after 12 weeks of diet and ending after 16 weeks. A pair-fed control group was used (HFD-PFSR) in which food intake was restricted to the amount of daily food intake of the HFD+SR group. […]
Measurements of blood glucose, insulin, total cholesterol, and triglycerides were performed in animals fasted for 5 hours. […] The glucose level in whole blood was measured with a glucometer (Bayer, Leverkusen, Germany). Insulin concentration was determined in isolated plasma using an ELISA kit (Abcam, Cambridge, Mass.). Total cholesterol (Genzyme, Kent, United Kingdom) and triglycerides (Pointe Scientific, Canton, Mich.) were determined by colorimetric enzymatic reaction according to the manufacturer's instructions. To quantify insulin resistance, the homeostatic model assessment of insulin resistance index (HOMA-IR) was calculated as previously described.

The test system of series [3] is DIO mice. As to the kind of experiment: Diet-induced obesity (DIO) mice treated with SR141716A: body weight, caloric intake, DEXA body composition. It is filed as in vivo, C57BL/6J male mice. The protocol:
(§1) C57BL/6J male mice (Jackson Laboratory, Bar Harbor, Me.) were fed HFD consisting of 60% Kcal from fat (D12492, Research Diets Inc, New Brunswick, N.J.) for 12 weeks before starting the intervention treatment with SR141716A. Additionally, age-matched C57BL/6J male mice were fed a low fat diet (LFD) consisting of 10% Kcal from fat (D12450J, Research Diets Inc, New Brunswick, N.J.) to develop lean controls. SR141716A was obtained from NIDA and administered at a dose of 10 mg/kg daily by oral gavage for 4 weeks, beginning after 12 weeks of diet and ending after 16 weeks. A pair-fed control group was used (HFD-PFSR) in which food intake was restricted to the amount of daily food intake of the HFD+SR group. All mice were maintained in an AAALAC-accredited animal facility at the University of South Carolina, School of Medicine (Columbia, S.C.). All procedures were performed according to NIH guidelines under protocols approved by the Institutional Animal Care and Use Committee.
The body composition in mice was analyzed by dual-energy X-ray absorptiometry (DEXA, LUNAR, Madison, Wis.). The mice were anesthetized and placed in the prone position on the specimen tray to allow scanning of the entire body. For food intake measurements, mice were given a defined amount of large intact food pellet weekly, or daily for the HFD-PFSR group. Food weight was measured using a balance with a precision of 0.01 g. Solid food intake was corrected for any visible spillage.
To study the effects of CB1 antagonist on obesity parameters, DIO mice that were fed a 60% HFD for 12 weeks were treated with SR141716A (SR) by daily oral gavage for 4 weeks (FIG. 1A). All other experimental groups were treated with the vehicle (Veh) 0.1% Tween® 80. In addition to the HFD+SR group, other experimental groups included mice fed a 10% low-fat control diet (LFD) (LFD+Veh), ad-libitum HFD-fed mice (HFD+Veh), and HFD-fed mice that were pair-fed to the HFD+SR group (HFD-PFSR) (FIG. 1B). […] At the baseline of the study, the mice were stratified into groups balanced by mean fat mass. […] Fasting parameters including blood glucose, insulin, insulin resistance index (HOMA-IR), total cholesterol and triglycerides were examined pre- and post- the 4-week intervention with SR compound.

The subject of series [4] is DIO mice. To be noted: cited from earlier work.
In series [5] the test system is obese patients. As to conditions: cited from earlier work.
The test system of series [6] is epididymal adipose tissue. As to the kind of experiment: qRT-PCR of macrophage polarization genes in epididymal fat of DIO mice. It counts as in vivo, C57BL/6J male mice. The protocol: as §1
After 4 weeks of treatment, mice were euthanized for tissue collection. Tissues were removed, weighed, and immediately processed to single cell suspension, snap-frozen in liquid nitrogen and stored at −80° C., or fixed in 10% formalin.
ATM RNA was isolated by miRNeasy Mini Kit (Qiagen). […] Fold change in mRNA expression was calculated using the comparative cycle method (2^−ΔΔCt).

Series [7] deals with thioglycollate-elicited peritoneal macrophages. As to the kind of experiment: Migration of peritoneal macrophages towards CCL19. It counts as cell-based, mouse. To be noted: SR141716A 10^−6 M vs DMSO; CCL19 500 ng/ml; 3T3-L1 conditioned medium. The protocol: The migration of macrophages to CCL19 (500 ng/ml, R&D Systems) was assessed by FluoroBlock™ permeable inserts (Corning®, Tewksbury, Mass.) and Cytation™5 imaging (BioTek, Winooski, Vt.). Peritoneal macrophages were harvested from mice primed with 1 ml of 3% (wt/vol) thioglycolate (i.p.) to elicit peritoneal exudates with macrophage number peaking on day 4. Macrophages were collected in euthanized mice by intraperitoneal wash. For tracking migration towards chemoattractants, macrophages were labeled with DilC12(3) fluorescent dye (Corning®, Tewksbury, Mass.). Macrophages were treated with conditioned media from 3T3-L1 adipocytes as described and treated either with SR141716A (10^−6 M) or DMSO as the vehicle control.
To test this, thioglycollate-elicited peritoneal macrophages were isolated and cultured them in 3T3-L1 adipocyte conditioned medium and treated them with SR141716A or vehicle. Their migration rate towards CCL19 was measured because CCL19 is the primary chemokine implicated in emigration of tissue macrophages towards draining lymph nodes.

Series [8] deals with macrophage CB1. As to the kind of experiment: BMDM treated in vitro with 3T3-L1 adipocyte conditioned medium and SR141716A. To be noted: adipocyte conditioned medium, vs DMSO. It is filed as cell-based, mouse. The protocol:
TNF, IL-6, and IFNγ ELISA kits were purchased from BioLegend. Netrin-1 ELISA kits were purchased from USCN Life Science (Houston, Tex.). Concentrations were measured in cell supernatants using mouse standards according to the manufacturer's guidelines.
Next, to confirm that the M2 polarization and decreased ATM retention observed in HFD+SR treated mice was a direct effect of CB1 blockade and not a secondary effect due to weight loss or other factors, primary macrophages were treated in vitro with 3T3-L1 adipocyte conditioned media and SR141716A or DMSO vehicle control. […] These findings confirmed that blockade of macrophage CB1 signaling has anti-inflammatory effects.

Setting [9] is: DIO mice, 10 mg/kg daily oral gavage, 4 weeks.
Setting [10] is: after 4 weeks of treatment, HFD+SR vs both HFD+Veh and HFD-PFSR, DEXA.
The mark [11] stands for this setting: epididymal adipose tissue of DIO mice, previous report.

We go through one compound from patent US11484533B2, “Methods and compositions for treating obesity” (UNIVERSITY OF SOUTH CAROLINA, priority 2019, dated 2022).

For the compound `Cc1c(C(=O)NN2CCCCC2)nn(-c2ccc(Cl)cc2Cl)c1-c1ccc(Cl)cc1` [SR141716A, 5-(4-chlorophenyl)-1-(2,4-dichlorophenyl)-4-methyl-N-piperidin-1-ylpyrazole-3-carboxamide], the “Netrin-1 expression at protein and transcription level” value in series [1] (ATM, HFD+SR vs HFD+Veh, Western blot and qRT-PCR) was “significantly reduced”. In addition, the miR-466 family expression entry in series [1] (ATMs, microarray validated by qRT-PCR, regardless of calorie intake) is on record as “down-regulated”. In series [1] (ATMs, qRT-PCR), the Agap2 expression result is given as “increased” and the miR-762 expression entry was “reduced”. For the same compound, the Unc5b expression entry in series [1] (HFD+SR vs HFD+Veh) is “downregulated”. Besides, in series [2], the “metabolic parameters (fasting blood glucose, insulin, HOMA-IR, total cholesterol, triglycerides)” value is recorded as “improvement in metabolic parameters”. Also, in series [3] (setting [9]), the body weight entry was “acute and persistent weight loss”; the calorie intake entry is given as “transient reduction of calorie intake”. For the same compound, in series [3] (after 4 weeks of treatment, HFD+SR vs HFD+Veh and HFD-PFSR, DEXA), the “changes in lean mass” value is given as “not significant”. For the same compound, in series [3] (setting [10]), the fat mass entry was “reduction in the fat mass and fat percentage was significant”; the fat percentage result is “reduction in the fat mass and fat percentage was significant”. In addition, the “number of pro-inflammatory M1 macrophages in adipose tissue” value in series [4] (HFD+SR vs HFD+Veh, previously demonstrated) was “significant decrease”. Also, in series [4] (setting [11]), the ATM infiltration result is “reduces both ATM infiltration and M1 polarization”; the M1 polarization result was “reduces both ATM infiltration and M1 polarization”. Further, the weight loss result in series [5] (obese patients, compared with placebo) was “greater weight loss”. The adverse effects entry in series [5] (reason for removal from the market) is given as “adverse psychiatric effects”. In addition, in series [6], the “Arg1 (M2) expression” value was “increased expression of Arg1” and the “Nos2 (M1) expression” value is listed as “lowered Nos2 expression”. Besides, the “migration towards CCL19” value in series [7] is reported as “higher migration towards CCL19”. Besides, in series [8] (BMDM), the Klf4 expression result was “induction of Klf4 and Stat6”; the Stat6 expression entry is “induction of Klf4 and Stat6”. For the same compound, in series [8] (macrophages, ELISA), the Netrin-1 secretion result is recorded as “reduced”.
